Test results: US8859557B2, “Substituted oxindole derivatives and their use as vasopressin receptor ligands” (Abbott GmbH & Co. KG, priority 2006, dated 2014)
Structures can show the parent of a compound that is named as a salt.

Assays:
[1] = target: T1, recombinant human oxytocin receptors (Homo sapiens, UniProt P30559); assay: Oxytocin receptor binding assay; settings: selectivity for V1b over oxytocin receptor, quotient of Ki values
T1 construct: expressed in transfected cells; host or cells: HEK-293, transient expression; lysed and homogenized cells
T1 sequence (P30559 1-389): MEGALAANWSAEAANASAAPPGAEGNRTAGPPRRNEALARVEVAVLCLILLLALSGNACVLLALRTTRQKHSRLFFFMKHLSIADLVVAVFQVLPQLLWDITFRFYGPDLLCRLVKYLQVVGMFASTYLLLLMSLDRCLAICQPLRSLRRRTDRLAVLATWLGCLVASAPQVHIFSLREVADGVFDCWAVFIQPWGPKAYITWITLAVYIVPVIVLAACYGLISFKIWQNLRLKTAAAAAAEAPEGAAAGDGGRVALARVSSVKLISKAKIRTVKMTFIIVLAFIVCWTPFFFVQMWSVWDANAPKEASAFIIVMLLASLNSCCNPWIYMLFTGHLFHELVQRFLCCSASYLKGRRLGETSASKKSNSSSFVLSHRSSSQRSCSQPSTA
Protocol: Oxytocin Receptor Binding Assay
Confluent HEK-293 cells with transiently expressing recombinant human oxytocin receptors were centrifuged at 750×g and at room temperature for 5 minutes. The residue was taken up in ice-cold lysis buffer (50 mM Tris-HCl, 10% glycerol, pH 7.4 and Roche Complete Protease Inhibitor) and subjected to an osmotic shock at 4° C. for 20 minutes. The lyzed cells were then centrifuged at 750×g and at 4° C. for 20 minutes, the residue was taken up in incubation buffer, and aliquots of 10^7 cells/ml were prepared. The aliquots were frozen at −80° C. until used.
On the day of the experiment, the cells were thawed, diluted with incubation buffer and homogenized using a Multipette Combitip (Eppendorf, Hamburg). […] The nonspecific binding was determined with 10^−6 M oxytocin (Bachem AG, H2510). Determinations in triplicate were set up. Bound and free radioligand were separated by filtration under vacuum with Whatman GF/B glass fibre filters using a Skatron cell harvester 7000. The bound radioactivity was determined by liquid scintillation measurement in a Tricarb beta counter, model 2000 or 2200CA (Packard).

[2] = Determination of the microsomal half-life / microsomal clearance (human); format: in vitro ADME; settings: pH 7.4; human liver microsomes, 0.5 μM test substance, 0.25 mg microsomal protein/ml; read-out: Human Mikrosomal Clearance
Protocol: The metabolic stability of a compound can be determined, for example, by incubating a solution of this compound with liver microsomes from particular species (for example rat, dog or human) and determining the half-life of the compound under these conditions (RS Obach, Curr Opin Drug Discov Devel. 2001, 4, 36-44). It is possible to conclude from an observed larger half-life that the metabolic stability of the compound is improved. The stability in the presence of human liver microsomes is of particular interest since it makes it possible to predict the metabolic degradation of the compound in the human liver. Compounds with increased metabolic stability (determined in the liver microsome test) are therefore probably also degraded more slowly in the liver. The slower metabolic degradation in the liver can lead to higher and/or longer-lasting concentrations (effective levels) of the compound in the body, so that the elimination half-life of the compounds according to the invention is increased. Increased and/or longer-lasting effective levels may lead to a better efficacy of the compound in the treatment or prophylaxis of various vasopressin-dependent diseases. An improved metabolic stability may additionally lead to an increased bioavailability after oral administration, because the compound is subjected, after being absorbed in the intestine, to less metabolic degradation in the liver (so-called first pass effect). An increased oral bioavailability may, because the concentration (effective level) of the compound is increased, lead to a better efficacy of the compound after oral administration.
Determination of the Microsomal Half-Life:
The metabolic stability of the compounds of the invention was determined in the following assay.
The test substances are incubated in a concentration of 0.5 μM as follows:
0.5 μM test substance is preincubated together with liver microsomes of various species (rat, human or other species) (0.25 mg of microsomal protein/ml) in 0.05M potassium phosphate buffer pH 7.4 in microtitre plates at 37° C. for 5 min. The reaction is started by adding NADPH (1 mg/ml). 50 μl aliquots are taken after 0, 5, 10, 15, 20 and 30 min, and the reaction is stopped immediately with the same volume of acetonitrile and cooled down. The samples are frozen until analyzed. Using MSMS, the remaining concentration of undegraded test substance is determined. From the […] of the test substance signal/time unit curve, the half-life (T½) is determined, where the half-life of the test substance can be calculated, assuming first order kinetics, from the decrease in the concentration of the compound with time. The microsomal clearance (mCl) is calculated as mCl=In2/T½/(content of microsomal protein in mg/ml)×1000 [ml/min/mg] (modified according to the literature references: Di, The Society for Biomoleculaur Screening, 2003, 453-462; Obach, DMD, 1999 vol 27. N 11, 1350-1359).

[3] = target: human vasopressin V1a receptor (Homo sapiens, UniProt P37288); assay: Vasopressin V1a receptor binding assay; settings: selectivity for V1b over V1a, quotient of Ki values
[4] = target: T2, human vasopressin V1b receptor (Homo sapiens, UniProt P47901); assay: Vasopressin V1b receptor binding assay; settings: displacement of 3H-AVP, membranes of CHO-K1 cells with human V1b receptor
T2 construct: expressed in transfected cells; host or cells: CHO-K1 (cell line hV1b-3H2_CHO), membrane preparation
T2 sequence (P47901 1-424): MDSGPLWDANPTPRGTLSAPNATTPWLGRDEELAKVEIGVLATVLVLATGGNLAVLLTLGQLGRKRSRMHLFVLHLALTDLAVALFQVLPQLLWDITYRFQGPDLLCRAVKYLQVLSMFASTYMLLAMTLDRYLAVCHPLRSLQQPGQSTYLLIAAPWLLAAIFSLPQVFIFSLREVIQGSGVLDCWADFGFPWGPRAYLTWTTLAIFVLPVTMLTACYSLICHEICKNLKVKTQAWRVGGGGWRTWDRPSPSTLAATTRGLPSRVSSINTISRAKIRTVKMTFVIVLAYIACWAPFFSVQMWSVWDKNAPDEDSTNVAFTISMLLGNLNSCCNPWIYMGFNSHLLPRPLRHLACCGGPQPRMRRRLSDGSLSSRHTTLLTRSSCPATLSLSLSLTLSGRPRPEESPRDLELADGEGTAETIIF
Protocol: Methods for Determining the Biological Activity Vasopressin V1b Receptor Binding Assay: Substances:
This series of DMSO predilutions was diluted 1:10 with assay buffer. The substance concentration was again diluted 1:5 in the assay mixture (2% DMSO in the mixture).
All determinations were carried out as triplicate determinations.

Chain of human vasopressin V1a receptor (P37288 whole entry): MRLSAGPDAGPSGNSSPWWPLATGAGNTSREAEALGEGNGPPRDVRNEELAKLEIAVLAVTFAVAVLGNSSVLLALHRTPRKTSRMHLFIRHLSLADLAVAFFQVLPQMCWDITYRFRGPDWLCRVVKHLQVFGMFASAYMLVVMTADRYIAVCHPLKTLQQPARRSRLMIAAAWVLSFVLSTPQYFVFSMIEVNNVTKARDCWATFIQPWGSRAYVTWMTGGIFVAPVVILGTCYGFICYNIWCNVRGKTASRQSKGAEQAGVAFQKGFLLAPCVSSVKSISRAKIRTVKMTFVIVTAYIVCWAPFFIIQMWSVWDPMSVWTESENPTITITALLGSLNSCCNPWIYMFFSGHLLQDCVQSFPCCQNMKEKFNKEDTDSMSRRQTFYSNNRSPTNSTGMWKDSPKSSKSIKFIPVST

Structure (SMILES)	Ki(h-OT)/Ki(h-V1b) [1]	microsomal CLint at 0.5 μM [2]	Ki(h-V1a)/Ki(h-V1b) [3]	Ki [4]
CCOc1ncccc1C1(NC(=O)N2CCC(N3CCN(CC)CC3)CC2)C(=O)N(S(=O)(=O)c2ccccc2)c2ccc(C#N)cc21 (racemic) [Example 40, N-[5-Cyano-3-(2-ethoxypyridin-3-yl)-2-oxo-1-(phenylsulphonyl)-2,3-dihydro-1H-indol-3-yl]-4-(4-ethylpiperazin-1-yl)piperidine-1-carboxamide]	+++ (>50)	60 to 120 µL/min/mg	++ (>50-100)	< 10 nM
CCOc1ncccc1C1(NC(=O)N2CCC(N3CCN(CC)CC3)CC2)C(=O)N(S(=O)(=O)c2ccc(OC)cc2OC)c2ccc(C#N)cc21 (racemic) [Example 37, N-[5-Cyano-1-[(2,4-dimethoxyphenyl)sulphonyl]-3-(2-ethoxypyridin-3-yl)-2-oxo-2,3-dihydro-1H-indol-3-yl]-4-(4-ethylpiperazin-1-yl)piperidine-1-carboxamide]	+++ (>50)	60 to 120 µL/min/mg	+++ (>100)	< 10 nM
CCOc1ncccc1C1(NC(=O)N2CCN(C3CCNCC3)CC2)C(=O)N(S(=O)(=O)c2ccc(OC)cc2OC)c2ccc(C#N)cc21.O=C(O)C(F)(F)F.O=C(O)C(F)(F)F (racemic) [Example 25, N-[5-Cyano-1-[(2,4-dimethoxyphenyl)sulphonyl]-3-(2-ethoxypyridin-3-yl)-2-oxo-2,3-dihydro-1H-indol-3-yl]-4-piperidin-4-ylpiperazine-1-carboxamide bis(trifluoroacetate)]	++ (>25-50)	< 60 µL/min/mg	+++ (>100)	< 10 nM
CCOc1ncccc1C1(NC(=O)N2CCN(C3CCN(C)CC3)CC2)C(=O)N(S(=O)(=O)c2ccc(OC)cc2)c2ccc(C#N)cc21 (racemic) [Example 5, N-[5-Cyano-3-(2-ethoxypyridin-3-yl)-1-[(4-methoxyphenyl)sulphonyl]-2-oxo-2,3-dihydro-1H-indol-3-yl]-4-(1-methylpiperidin-4-yl)piperazine-1-carboxamide]	–	< 60 µL/min/mg	–	–
CCOc1ncccc1C1(NC(=O)N2CCC(N3CCN(C)CC3)CC2)C(=O)N(S(=O)(=O)c2ccccc2)c2ccc(C#N)cc21 (racemic) [Example 34, N-[5-Cyano-3-(2-ethoxypyridin-3-yl)-2-oxo-1-(phenylsulphonyl)-2,3-dihydro-1H-indol-3-yl]-4-(4-methylpiperazin-1-yl)piperidine-1-carboxamide]	–	< 60 µL/min/mg	–	–
CCOc1ncccc1C1(NC(=O)N2CCC(C3CCNCC3)CC2)C(=O)N(S(=O)(=O)c2ccc(OC)cc2OC)c2ccc(C#N)cc21.O=C(O)C(F)(F)F.O=C(O)C(F)(F)F (racemic) [Example 85, N-[5-Cyano-1-[(2,4-dimethoxyphenyl)sulphonyl]-3-(2-ethoxypyridin-3-yl)-2-oxo-2,3-dihydro-1H-indol-3-yl]-4,4′-bipiperidine-1-carboxamide bis(trifluoroacetate)]	++ (>25-50)	60 to 120 µL/min/mg	+++ (>100)	< 10 nM
CCOc1ncccc1C1(NC(=O)N2CCC(N3CCN(C)CC3)CC2)C(=O)N(S(=O)(=O)c2ccc(OC)cc2)c2ccc(C#N)cc21.O=C(O)C(F)(F)F (racemic) [Example 35, N-[5-Cyano-3-(2-ethoxypyridin-3-yl)-1-[(4-methoxyphenyl)sulphonyl]-2-oxo-2,3-dihydro-1H-indol-3-yl]-4-(4-methylpiperazin-1-yl)piperidine-1-carboxamide trifluoroacetate]	++ (>25-50)	60 to 120 µL/min/mg	+ (15-50)	< 10 nM
CCOc1ncccc1C1(NC(=O)N2CCC(N3CCNCC3)CC2)C(=O)N(S(=O)(=O)c2ccc(OC)cc2OC)c2ccc(C#N)cc21 (racemic) [Example 55, N-[5-Cyano-1-[(2,4-dimethoxyphenyl)sulphonyl]-3-(2-ethoxypyridin-3-yl)-2-oxo-2,3-dihydro-1H-indol-3-yl]-4-piperazin-1-ylpiperidine-1-carboxamide]	++ (>25-50)	60 to 120 µL/min/mg	+++ (>100)	< 10 nM

More lines, now with the values ahead:

Ki(h-OT)/Ki(h-V1b) [1]	microsomal CLint at 0.5 μM [2]	Ki(h-V1a)/Ki(h-V1b) [3]	Ki [4]	Structure (SMILES)
–	< 60 µL/min/mg	–	< 10 nM	CCOc1ncccc1[C@]1(NC(=O)N2CCC(C3CCN(C)CC3)CC2)C(=O)N(S(=O)(=O)c2ccc(OC)cc2OC)c2ccc(C#N)cc21 (single isomer, unassigned) [Example 61B, (−)-N-[5-Cyano-1-[(2,4-dimethoxyphenyl)sulphonyl)-3-(2-ethoxypyridin-3-yl)-2-oxo-2,3-dihydro-1H-indol-3-yl]-1′-methyl-4,4′-bipiperidine-1-carboxamide trifluoroacetate]
+++ (>50)	< 60 µL/min/mg	+++ (>100)	< 10 nM	CCOc1ncccc1C1(NC(=O)N2CCC(N3CCN(CC)CC3)CC2)C(=O)N(S(=O)(=O)c2ccc(OC)cc2OC)c2ccc(C#N)cc21 (single isomer, unassigned) [Example 37B, (−)-N-[5-Cyano-1-[(2,4-dimethoxyphenyl)sulphonyl]-3-(2-ethoxypyridin-3-yl)-2-oxo-2,3-dihydro-1H-indol-3-yl]-4-(4-ethylpiperazin-1-yl)piperidine-1-carboxamide]
+++ (>50)	–	+++ (>100)	< 10 nM	CCOc1ncccc1C1(NC(=O)N2CCC(C3CCN(CC)CC3)CC2)C(=O)N(S(=O)(=O)c2ccc(OC)cc2OC)c2ccc(C#N)cc21.O=C(O)C(F)(F)F (single isomer, unassigned) [Example 67B, (−)-N-[5-Cyano-1-[(2,4-dimethoxyphenyl)sulphonyl]-3-(2-ethoxypyridin-3-yl)-2-oxo-2,3-dihydro-1H-indol-3-yl]-1′-ethyl-4,4′-bipiperidine-1-carboxamide trifluoroacetate]
